What was measured:
Experiment in all cases: greenhouse post-emergence herbicidal test
[1] = system: ERICA; format: in vivo, Conyza canadensis; design: key to herbicidal activity against ERICA found: rating on a scale from 0 to 100; conditions: post emergence
Description: (§1) The culture containers used were plastic pots containing medium loamy sand with approximately 4.6% of humus and 69.9% sand as substrate. The seeds of the test plants were sown separately for each species.
(§2) For the post-emergence treatment, the test plants were grown to a plant height of from 1 to 15 cm, depending on the plant habit, and only then treated with the active compounds which had been suspended or emulsified in water. To this end, the test plants were either sown directly, and grown in the same containers, or they were first grown separately as seedlings and transplanted into the test containers a few days prior to treatment.
(§3) Depending on the species, the plants were kept at 10-25° C. and 20-35° C., respectively.
(§4) The test period extended over 1 to 3 weeks. During this time, the plants were tended and their response to the individual treatments was evaluated 20 days after treatment except mentioned otherwise.
(§5) Evaluation was carried out using a scale from 0 to 100. 100 means no emergence of the plants, or complete destruction of at least the above-ground parts, and 0 means no damage or normal course of growth.
(§6) The respective stated components A and B, and, if appropriate, C, were formulated as a 10% by weight strength emulsion concentrate and, with addition of the amount of solvent system, introduced into the spray liquor used for applying the active compound. In the examples, the solvent used was water.
(§7) In the examples below, using the method of S. R. Colby (1967) “Calculating synergistic and antagonistic responses of herbicide combinations”, Weeds 15, p. 22 ff., the value E, which is expected if the activity of the individual active compounds is only additive, was calculated. E=X+Y−(X·Y/100)

[2] = system: PAPRH; format: in vivo, Papaver rhoeas; design: key: rating on a scale from 0 to 100
Description: as §1, §2, §3, §4, §5, §6, §7

[3] = system: IPOHE; format: in vivo, Ipomoea hederacea; design: key to herbicidal activity against IPOHE found: rating on a scale from 0 to 100; conditions: post emergence
Description: as §1, §2, §3, §4, §5, §6, §7

[4] = system: GERDI; format: in vivo, Geranium dissectum; design: key to herbicidal activity against GERDI found: rating on a scale from 0 to 100; conditions: post emergence; for herbicidal activity against GERDI found: I.1 62.5 g/ha
Description: as §1, §2, §3, §4, §5, §6, §7

[5] = system: MATCH; format: in vivo, Matricaria recutita; design: key to herbicidal activity against MATCH found: rating on a scale from 0 to 100; conditions: post emergence
Description: as §1, §2, §3, §4, §5, §6, §7

[6] = system: ECHCG; format: in vivo, Echinochloa crus-galli; design: key to herbicidal activity against ECHCG found / herbicidal activity against ECHCH found: scale 0 to 100; conditions: post emergence; a.i. g/ha: I.1 62.5, B.79 25; 20 days after treatment
Description: as §1, §2, §3, §4, §5, §6, §7

[7] = system: POLCO; format: in vivo, Polygonum convolvulus; design: key to herbicidal activity against POLCO found: rating on a scale from 0 to 100; conditions: post emergence, 20 days after treatment
Description: as §1, §2, §3, §4, §5, §6, §7

[8] = system: KCHSC; format: in vivo, Kochia scoparia; design: key to herbicidal activity against KCHSC found: rating on a scale from 0 to 100; conditions: post emergence, B.88 1 g/ha a.i.
Description: as §1, §2, §3, §4, §5, §6, §7

[9] = system: ABUTH; format: in vivo, Abutilon theophrast; design: key to herbicidal activity against ABUTH found: rating on a scale from 0 to 100; conditions: post emergence; I.1 31.25 g/ha, B.88 1 g/ha a.i.
Description: as §1, §2, §3, §4, §5, §6, §7

[10] = system: ALOMY; format: in vivo, Alopecurus myosuroides; design: key to herbicidal activity against ALOMY found: rating on a scale from 0 to 100; conditions: post emergence, I.1 62.5 g/ha
Description: as §1, §2, §3, §4, §5, §6, §7

[11] = system: APESV; format: in vivo, Apera spica-venti; design: key to herbicidal activity against APESV found: rating on a scale from 0 to 100; conditions: post emergence
Description: as §1, §2, §3, §4, §5, §6, §7

[12] = I.1 62.5 g/ha, B.57 2 g/ha a.i.
[13] = I.1 31.25 g/ha, B.88 1 g/ha a.i.
[14] = I.1 31.25 g/ha, B.88 2 g/ha a.i.
[15] = I.1 62.5 g/ha, B.88 1 g/ha a.i.
[16] = I.1 62.5 g/ha, B.88 2 g/ha a.i.

COc1cc(OC)n2nc(NS(=O)(=O)c3c(C(F)(F)F)ccnc3OC)nc2n1 [B.57, pyroxsulam]
herbicidal activity against ERICA found [1, 12]: 75
herbicidal activity against PAPRH found [2, 12]: 0
herbicidal activity against IPOHE found ([3]; I.1 62.5 g/ha, B.57 1 g/ha a.i.): 80

CCS(=O)(=O)c1cccnc1S(=O)(=O)NC(=O)Nc1nc(OC)cc(OC)n1 [B.59, rimsulfuron]
pest or weed control at 0.5 g/ha ([1]; Erigeron canadensis, post-emergence, 480 h, 0.5 g/ha a.i., read-out: herbicidal activity against ERICA found): 65%
herbicidal activity against PAPRH found ([2]; 0.5 g/ha a.i.): 65
pest or weed control at 0.5 g/ha ([4]; Geranium dissectum, post-emergence, 480 h, 0.5 g/ha a.i., read-out: herbicidal activity against GERDI found): 75%
pest or weed control at 0.5 g/ha ([3]; Ipomoea hederacea, post-emergence, 480 h, 0.5 g/ha a.i., read-out: herbicidal activity against IPOHE found): 90%
pest or weed control at 0.5 g/ha ([5]; Matricaria chamomilla, post-emergence, 480 h, 0.5 g/ha a.i., read-out: herbicidal activity against MATCH found): 75%

CSc1nnc(C(C)(C)C)c(=O)n1N [B.79, metribuzin]
herbicidal activity against ECHCG found [6]: 20%
herbicidal activity against POLCO found ([7]; a.i. g/ha: I.1 20.8, B.79 25): 20%
herbicidal activity against POLCO found ([7]; a.i. g/ha: I.1 62.5, B.79 25): 20%
herbicidal activity against MATCH found ([5]; a.i. g/ha: I.1 20.8, B.79 25, 20 days after treatment): 65%

C#CCN1C(=O)COc2cc(F)c(N3C(=O)C4=C(CCCC4)C3=O)cc21 [B.88, flumioxazin]
herbicidal activity against KCHSC found ([8]; I.1 15.62 g/ha): 85
herbicidal activity against KCHSC found ([8]; I.1 31.25 g/ha): 85
herbicidal activity against KCHSC found ([8]; I.1 62.5 g/ha): 85
herbicidal activity against ABUTH found [9]: 90
herbicidal activity against PAPRH found ([2]; I.1 15.62 g/ha, B.88 2 g/ha a.i.): 75
herbicidal activity against PAPRH found [2, 13]: 25
herbicidal activity against PAPRH found [2, 14]: 75
herbicidal activity against PAPRH found [2, 15]: 25
herbicidal activity against PAPRH found [2, 16]: 75
herbicidal activity against GERDI found ([4]; B.88 1 g/ha a.i.): 70
herbicidal activity against GERDI found ([4]; B.88 2 g/ha a.i.): 70
herbicidal activity against ALOMY found ([10]; B.88 1 g/ha a.i.): 0
herbicidal activity against ALOMY found ([10]; B.88 2 g/ha a.i.): 20
herbicidal activity against APESV found ([11]; I.1 15.62 g/ha, B.88 1 g/ha a.i.): 25
herbicidal activity against APESV found [11, 13]: 25
herbicidal activity against APESV found [11, 14]: 65
herbicidal activity against APESV found [11, 15]: 25
herbicidal activity against APESV found [11, 16]: 65

— patent US10881110B2, “Herbicidal compositions comprising isoxazolo[5,4-b]pyridines” (BASF SE, priority 2014, dated 2021)
